Melting point data for 61 compounds are collected here from a melting point compilation (Tetko et al.; mined from patent text by program, amines drawn as free bases though some values may be those of a salt).

SMILES strings stand for the structures.

As usually defined, the melting point is the temperature, or range, at which the solid turns liquid. Turning to `O=S(=O)(O)CCCCCCN1CCN(Cc2ccccc2)CC1`, the melting point lay in the range of 228 to 230 °C. `O=C(C=Cc1ccc(O)cc1)NCCO`: the melting point lay in the range of 149 to 151 °C. Then `CCn1nc(-c2ccccc2)c(C(C)=O)c(Nc2ccc(Br)c3cccnc23)c1=O`, with 148 to 149 °C; and `COC(=O)[C@@H]1CCN1S(=O)(=O)c1ccc(Cl)c(CBr)c1Cl`, with 150 °C; and `CCC1(C)C(=O)N=C(SCc2ccccc2N(C)C)N1C(C)=O` (stereo unspecified), with 83 to 85 °C. `CN(CCCC(C(N)=O)(c1ccccc1)c1ccccc1)CCc1ccc(CN)cc1` returned a melting point of 139 to 142 °C.

The compound `Cc1csc2c(C(=O)O)c(=O)c3cc4c(cc3n12)OCO4` gave a melting point of 303 to 305 °C. `N#Cc1cnc(Nc2ccc(CCn3ccnc3)cc2)nc1-c1ccccc1` came in with a melting point of 210 to 211 °C. As for `CC(C)(C)c1ccc(C=NOCCCOc2ccc(CC(=O)O)cc2)cc1`, the melting point lay in the range of 56.2 to 59.2 °C. The compound `COC(=O)C1=C(C)NC(C)=C(C(=O)OCC2CCCO2)C1c1ccc(Cl)c([N+](=O)[O-])c1` (stereo unspecified) yielded a melting point of 148 to 150 °C. `CCS(=O)(=O)c1ccc(C(CC2CCCC2)C(=O)Nc2nccs2)cc1` (stereo unspecified) gave a melting point of 178 to 179 °C.

`NC(=O)c1[nH]c2cccnc2c1Sc1ccccc1` returned a melting point of 251 °C. Take `COc1ccc2[nH]c3c([N+](=O)[O-])ccc(Cl)c3c(=O)c2c1`: the melting point lay in the range of 262 to 264 °C. `N#Cc1cccc(-c2nc(-c3ccc(C(=O)O)cc3)cc3cccnc23)c1`: the melting point is above 300 °C. In the case of `CC(=O)c1ccc(-c2nc(=O)c3ccccc3s2)nc1`, the melting point lay in the range of 276 to 277 °C.

`Cc1cc(C)cc(P(=O)(O)c2cc(C)cc(C)c2)c1` gave a melting point of 256 to 261 °C. As to `COc1ccc(N2CCN(c3c(C)c(C)c4c(c3C)C(=O)C(C)(C)O4)CC2)cc1C`, the melting point lay in the range of 129 to 131 °C. `COC(=O)CCC#Cc1cc(F)c(Cl)cc1N`: the melting point lay within 67 to 68 °C. In the case of `COc1ccc(S(=O)(=O)Nc2c(C)cc(C#N)cc2C(=O)O)cc1` it was 175 °C; in that of `CCCOC(Nc1ccccc1)(OCCC)c1ccnc(C(=O)c2ccc(C)cc2)c1`, 120 to 121 °C. Compound `CC(=O)N1CCCCc2ccc(C(=O)CCN(C)C)cc21` returned a melting point of 68 to 70 °C. `O=C(O)CC1CCCc2c1n(Cc1ccc(F)cc1)c1c(F)cc(F)cc21` (stereo unspecified) yielded a melting point of 195 to 196 °C. `Brc1cc(Br)c(OC2C=CCC2)c(I)c1` (stereo unspecified): the melting point lay within 57 to 58 °C. Take `CCc1noc(C=C(N)c2ccccc2)c1C(=O)NC`: the melting point was in the range of 125 to 132 °C.

`O=C(O)c1cc(OCCCc2ccccc2)cc(OCCCc2ccccc2)c1` yielded a melting point of 107 to 109 °C.

With `COc1cc(OC)c(/C=C/S(=O)(=O)CS(=O)(=O)/C=C/c2c(OC)cc(OC)cc2OC)c(OC)c1`, the melting point is 140 to 142 °C. Then `CCCOc1ccc(S(=O)(=O)N2CCN(CCOC(=O)CCC)CC2)cc1-c1nc2c(CCC)cn(CC)c2c(=O)[nH]1`, with 71.5 to 73 °C; and `CC1CCC(=O)CC1S(=O)(=O)c1ccccc1` (stereo unspecified), with 71 to 74 °C; and `COc1ccc(C(=O)N2c3ccc(OC)cc3CC2C(=O)O)cc1` (stereo unspecified), with 151 to 152 °C. Consider `Cc1ccc(S(=O)(=O)OC2=C(Br)C(=O)c3c(ccc4c3CCC(C)(C)O4)C2=O)cc1`, for which the melting point lay within 109 to 115 °C.

`CCCCCCCCCCCCCCCCCCOc1cc(OCCCCc2ccc3cc(O)c(O)cc3c2)cc(N(CC(=O)O)CC(=O)O)c1` registered a melting point of 153 to 155 °C.

`CCCCCCCCCCCNC(=O)NCc1ccccc1` came in with a melting point of 97 °C. Then `COC(=O)c1ccccc1S(=O)(=O)NC(=O)Nc1nc(OC)cc(OC(F)(F)F)n1`, with 141 to 143 °C; and `CC(C)Nc1c(-c2c(F)cc(F)cc2F)c(Cl)nc2nncn12`, with 268 to 273 °C; and `Cc1ccc(C(=S)c2cc(F)cc3c2NC(=O)C3)cc1`, with 168 to 174 °C. With `CSc1ccc(-c2nc(SC)c(C#N)c(=O)n2-c2ccc(C(C)C)cc2)cc1`, the melting point lay in the range of 180 to 181 °C. Compound `N#Cc1nc(-c2nn(-c3c(Cl)cc(C(F)(F)F)cc3Cl)nc2Cl)[nH]c1C#N` came in with a melting point of 206 to 208 °C. With `O=C(O)c1cn(C2COC2)c2cc(N3CCNCC3)c(F)c(O)c2c1=O`, the melting point lay in the range of 266 to 273 °C. With `CN(C)C(=O)c1ccccc1Sc1ccc([N+](=O)[O-])cc1[N+](=O)[O-]`, the melting point lay within 144 to 145 °C. Then `CCCc1cn(CC(=O)O)nc1OCCCc1cn(-c2ccc(C(F)(F)F)cn2)nc1CCC`, with 138 to 139 °C; and `Cn1cc(-c2cc(F)c(F)c(OC3SCC(O)C(O)C3O)c2)cn1` (stereo unspecified), with 184 °C. Then `COc1cc(N)cc2c1nc(C(F)F)n2-c1nc(N2CCOCC2)nc(N2CCN(S(C)(=O)=O)CC2)n1`, with 280 to 283 °C; and `N#Cc1ccc(-c2ccc(-c3ccn([C@H](CC(=O)OCc4ccccc4)C(=O)N[C@H](CO)Cc4ccccc4)c3)cc2)cc1`, with 149 to 150 °C. Then `CCCCCNC(=O)c1cc(N2CCN(C(=O)c3ccccc3C(F)(F)F)CC2)nn1C(=O)OCc1ccccc1`, with 58 to 61 °C; and `O=C(O)c1cccc(C=CC(=O)c2ccccc2)c1`, with 198 to 201 °C. `Nc1c(F)c(N2CCC(C3(N)CCC3)C2)c(F)c2c1c(=O)c(C(=O)O)cn2[C@@H]1C[C@@H]1F` (stereo partly specified) registered a melting point of 133 to 139 °C. Turning to `COC(=O)C(Oc1nc(OC)cc(OC)n1)C(C)(OCc1ccccc1)c1ccccc1` (stereo unspecified), the melting point fell in the range of 115 to 117 °C. `Cc1sccc1C1(c2cccc(-c3cncnc3)c2)N=C(N)N(C)C1=O` (stereo unspecified) had a melting point of 154 to 159 °C. `CC(=O)NC1(c2ccccc2)CCN(CCC(CN(CCc2ccccc2)CCc2ccccc2)c2ccc(Cl)c(Cl)c2)CC1` (stereo unspecified) had a melting point of 60 to 62 °C. For `CC(=O)Nc1cccc2c1SC(C)C2` (stereo unspecified), the melting point is 125 to 127 °C. `COc1ccc(CCCN2C(=O)c3ccccc3C2=O)cc1OC` displayed a melting point of 82 to 85 °C. `CCN(CC)C(=O)Nc1cc(C(C)(C)C)on1` returned a melting point of 122 to 124 °C. For `O=C(O)CN1C(=O)C(=CC=Cc2ccccc2Br)SC1=S`, the melting point lay within 241 to 244 °C. `CCOC(=O)c1ccc(N=C(Nc2ccc(C(=O)OCC)cc2)c2ccccc2)cc1` returned a melting point of 170 to 172 °C. Take `Cc1c2n(c(=O)[nH]c1=O)CCCS2`: the melting point lay in the range of 196 to 198 °C. With `CCOCc1nc2c(N)nc3cc(-c4ccccc4)cnc3c2n1CC(C)(C)O`, the melting point was 158 to 159 °C. Then `O=C(NCCc1ccccn1)c1ccccc1-c1ccccc1CNS(=O)(=O)c1ccccc1`, with 131 °C; and `Cc1nnc2n1-c1ccc(I)cc1C(c1ccccc1Cl)=NC2`, with 290 to 292 °C. Then `O=C1OC(CCCN2CCN(c3ccccn3)CC2)CN1c1ccccc1` (stereo unspecified), with 123 to 125 °C. `CN(CC(N)=O)S(=O)(=O)Cc1cccc(C(F)(F)F)c1`: the melting point was 146 to 148 °C. In turn, `CC(C)COc1cc(N(C)C)ccc1C(=O)c1ccccc1C(=O)O` registered a melting point of 199 to 201 °C.
